# Reference: US20260048062A1, “FUSED AMINO PYRIMIDINE COMPOUNDS FOR TREATMENT OF PSYCHOSIS AND PSYCHOTIC DISORDERS” (Ovid Therapeutics Inc., priority 2024, published 2026)
# Target: T1, KCC2 (Homo sapiens, UniProt Q9H2X9)
# T1 construct: expressed in transfected cells; host or cells: HEK-293 (ATCC CRL-1573), transient transfection
# T1 sequence (Q9H2X9 1-1116 isoform Q9H2X9-2): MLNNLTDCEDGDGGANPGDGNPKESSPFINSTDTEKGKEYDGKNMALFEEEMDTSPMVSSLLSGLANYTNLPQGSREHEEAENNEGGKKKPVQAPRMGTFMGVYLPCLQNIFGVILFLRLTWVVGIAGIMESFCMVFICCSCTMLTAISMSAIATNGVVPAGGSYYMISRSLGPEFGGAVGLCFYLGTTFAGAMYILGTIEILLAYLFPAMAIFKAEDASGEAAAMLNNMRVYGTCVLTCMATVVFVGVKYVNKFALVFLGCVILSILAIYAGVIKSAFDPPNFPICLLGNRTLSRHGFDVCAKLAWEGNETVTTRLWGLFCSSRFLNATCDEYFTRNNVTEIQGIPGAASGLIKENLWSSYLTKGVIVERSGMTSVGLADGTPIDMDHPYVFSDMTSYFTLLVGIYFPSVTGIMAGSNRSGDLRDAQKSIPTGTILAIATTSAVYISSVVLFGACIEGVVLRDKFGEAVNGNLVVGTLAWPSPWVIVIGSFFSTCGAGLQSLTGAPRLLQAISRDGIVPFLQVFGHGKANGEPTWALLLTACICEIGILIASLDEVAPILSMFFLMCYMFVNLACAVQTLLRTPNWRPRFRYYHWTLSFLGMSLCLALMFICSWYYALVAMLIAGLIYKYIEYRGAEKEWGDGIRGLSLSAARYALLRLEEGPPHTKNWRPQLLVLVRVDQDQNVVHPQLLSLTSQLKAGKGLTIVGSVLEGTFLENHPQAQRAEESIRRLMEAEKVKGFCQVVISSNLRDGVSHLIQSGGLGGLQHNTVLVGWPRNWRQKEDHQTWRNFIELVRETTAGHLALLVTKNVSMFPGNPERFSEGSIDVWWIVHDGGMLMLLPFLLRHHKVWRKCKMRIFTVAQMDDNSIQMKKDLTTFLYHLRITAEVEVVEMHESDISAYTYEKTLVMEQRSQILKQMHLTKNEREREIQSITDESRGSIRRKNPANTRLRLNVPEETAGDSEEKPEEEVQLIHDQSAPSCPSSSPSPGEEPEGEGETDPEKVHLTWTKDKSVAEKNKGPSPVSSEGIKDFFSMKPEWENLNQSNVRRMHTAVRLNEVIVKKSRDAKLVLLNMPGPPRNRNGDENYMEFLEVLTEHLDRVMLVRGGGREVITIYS
# Experiment: FLIPR Tl+ flux assay, HEK-293 cells expressing KCC2
# Assay type: cell-based
# Conditions: saturating concentration of 3 μM, 1% BCD vehicle
# Experimental: A multi-tiered high-throughput screening assay was used, leveraging a proprietary library of 1.3 million small molecule compounds from AstraZeneca (Cambridge, UK) to identify chemical entities capable of activating KCC2. A single point concentration of 30 μM was used to identify potassium flux using an established thallium (TI+) influx FLIPR assay as the primary read out in HEK-293 cells overexpressing KCC2 (Cardarelli et al., Nat. Med. 23, 1394-1396 (2017); Conway et al., J Biol Chem 292, 21253-21263 (2017); Lee et al., 2022, supra).
# Cell Culture and biotinylation. […]
# FLIPR TI Flux assay. HEK-293 cells were washed with HBSS, and then incubated with loading buffer containing TI sensitive fluorescent dye (https://www.moleculardevices.com), 20 μM bumetanide 20 μM ouabain and 2.5 mM probenecid for 1 h at room temperature (RT) under control conditions or with drugs in the dark using a FlexStation 3 microplate reader (Molecular Devices) and imaged […] for 30 min. Stimulus buffer was added containing 5 mM K^+/0.5 mM Tl^+ and cells were imaged every 1.5 over a 190 second time course The initial rate Tl^+ uptake (Relative Fluorescence Units (RFU) per second) was determined following addition of the stimulus buffer as outlined previously (Conway et al., 2017, supra) (Lee et al., 2022, supra). […]
smiles,measurement,value
"C[C@@H]1CN(c2nc3c(c(Nc4ccc(C5CCCCC5)cc4)n2)COC3)CCO1 [Compound A, (R)—N-(4-cyclohexylphenyl)-2-(2-methylmorpholino)-5,7-dihydrofuro[3,4-d]pyrimidin-4-amine]",maximum potentiation of KCC2,90%
